Values after ≈ are worked out from the molar mass of the structure shown.
How the values were obtained:
[1] = test system: colon carcinoma cell line (HCT-116); test: Neutral red cytotoxicity assay, HCT-116; assay type: cell-based; conditions: Homo sapiens, isolated compounds, 72 h, mean ± SD of three replicates, read-out: IC50 (μg/mL) HCT-116
Protocol: The human cancer cells KB, Ca Ski, MCF-7, HCT-116, A549, and noncancer human cell lines (MRC-5) were purchased from the American Tissue Culture Collection (ATCC, USA). The supplemented RPMI 1640 media and eagle minimum essential medium (EMEM) were purchased from Sigma-Aldrich, USA. The supplements or antibiotics such as foetal bovine serum (FBS), penicillin/streptomycin (P/S) (100 μg/mL), amphotericin B (50 μg/mL), and accutase were purchased from PAA Laboratories, Austria. Sodium pyruvate (11 mg/mL) purchased from Sigma-Aldrich, USA. The cells were cultured in a SHEL LAB water-jacketed CO2 incubator with […] tissue culture flasks (Nunc, Denmark), which was observed routinely under inverted microscope (Leica DMI3000 B, Germany) for any contamination and seeded into 96-well flat bottom microtiter plate (Nunc, Denmark). The extract or pure compounds was dissolved in dimethyl sulfoxide (DMSO, Molecular Biology Grade, >99.9%) from Sigma-Aldrich, USA. Microtiter plate incubator shaker (LT Biomax 500) was used and absorbance was measured at 540 nm using an ELISA microplate reader (EMax microplate reader of Molecular Devices, USA). MCF-7 and Ca Ski were cultured in RPMI 1640 media supplemented with 10% v/v FBS, P/S, and amphotericin B and MRC-5 in EMEM media with 10% v/v FBS, P/S, amphotericin B, and sodium pyruvate. The cells were cultured in tissue culture flask in 5% CO2 incubator kept at 37°C in a humidified atmosphere and observed routinely under inverted microscope from any contaminations. Each fresh medium was replaced every 2 or 3 days until cell confluence was achieved and the cells were detached by using accutase.
The in vitro cytotoxicity activity was performed using the neutral red cytotoxicity assay based on the initial protocol as described earlier with some modifications. Briefly, cells were detached from the tissue culture flask with 1.0 mL solution of accutase and PBS solution. The cell pellet was obtained by centrifugation at 1,000 rpm for 5 minutes. The density of the viable cells was counted by 0.4% of trypan blue exclusion in a haemocytometer. Cells were then plated in 96-well microtiter plate (Nunc), at a concentration of 1 × 10^4 cells/well and incubated in a CO2 incubator at 37°C to allow the cells to adhere. After 24 h, the cells were treated with six different concentrations, that is, 1, 10, 25, 50, 75, and 100 μg/mL of each tested agent in three replicates. The plates were incubated for 72 h at 37°C in a 5% CO2 incubator. The untreated cells were regarded as a negative control, whilst cells incubated only with DMSO (0.5%, v/v) were used as a vehicle control. No effect due to the DMSO was observed. Doxorubicin was used as the positive control. After 72 h, the old medium was substituted with fresh medium containing 50 μg/mL neutral red. The 96-well plates were placed into incubator for 3 h. This is to allow the uptake of the vital dye into the lysosomes of viable and undamaged cells. Then, the media was discarded and cells were washed with 200 μL of neutral red washing solution. The dye was eluted from the cells by adding neutral red resorb solution (200 μL). The plate was further incubated for 30 min with rapid agitation on a microtiter plate shaker. The optical density (OD) of the eluted dye was read at 540 nm using a microplate reader. The experiments were conducted in triplicates. […] Cytotoxicity of each test agent is expressed as IC50 value. […]

Ca Ski cells = test: Morphological changes by phase contrast inverted microscope, Ca Ski; assay type: cell-based, human; conditions: 48 h, 12.5-50 μg/mL, phase contrast 200x
Protocol: (§1) Observation of morphological changes of apoptotic cells was performed according to the method with slight modifications. Briefly, 5 × 10^5 cells were incubated for 48 hours with or without selected compounds at concentrations of 12.5, 25, 40, and 50 μg/mL in a 60 mm diameter tissue culture dishes. The medium was discarded and cells were washed once with PBS. The morphological changes of the apoptotic cells were observed using phase contrast inverted microscope (Leica DMI 3000B, Germany) at 200x magnifications.

HCT-116 cells = test: Morphological changes by phase contrast inverted microscope, HCT-116; assay type: cell-based, human; conditions: HCT-116, 48 h, 12.5-50 μg/mL, phase contrast 200x
Protocol: as §1

**Q.** Which IC50 [1] does the source give for `C=CC1(C)Cc2occ(C)c2C(=O)C1C(=C)C` (stereo not drawn) [Curzerenone, curzerenone] here?
**A.** 53 ± 1.5 µg/mL (≈ 230 µM)

**Q.** What about the “morphological changes (in words)” value (Ca Ski cells) of the same molecule?
**A.** typical apoptotic features

**Q.** And the “morphological changes (in words)” value (HCT-116 cells)?
**A.** typical apoptotic features

**Q.** `C=C1CCC(C(C)C)=CC2C1CC[C@@]2(C)O` (stereo partly drawn) [Alismol, alismol] was tested. Which IC50 [1] did it give?
**A.** 9 ± 0.9 µg/mL (≈ 40.8 µM)

**Q.** And the “morphological changes (in words)” value (Ca Ski cells)?
**A.** typical apoptotic features

**Q.** What about the “morphological changes (in words)” value (HCT-116 cells) of the same molecule?
**A.** typical apoptotic features

From paper PMC3671673, “In Vitro Morphological Assessment of Apoptosis Induced by Antiproliferative Constituents from the Rhizomes of Curcuma zedoaria” (Evidence-based Complementary and Alternative Medicine : eCAM, 2013)
